Measured values as given in a melting point compilation (Tetko et al.; mined from patent text by program, amines drawn as free bases though some values may be those of a salt).

Row | SMILES | melting point
1 | CC(C)c1ccc(-c2cnc(-c3cccc(C(=O)O)c3)s2)cc1 | 218 to 220 °C
2 | O=C1OCCCCOC(=O)c2ccc(cc2)-c2ccc1cc2 | 266 °C
3 | CNC(=O)CN(c1ccc(Cl)cc1Cc1c(F)cccc1F)S(=O)(=O)c1ccc(OC)c(OC)c1 | 92.9 °C
4 | CCOC(=O)C(=O)Nc1ccc(C(=O)NC2CCN(C3CCCCC3)C2)cc1 (stereo unspecified) | 138 to 141 °C
5 | COCSCCNC(=C[N+](=O)[O-])SC | 54 to 58 °C
6 | CC(=O)c1nc2cc(C(F)(F)F)c(Cl)cc2n1-c1ccc(CCNC(=O)NS(=O)(=O)c2ccc(C)cc2)cc1 | 225 °C
7 | CC(=O)SCCS(C)(=O)=O | 57 to 59 °C
8 | c1ccc2c(c1)CCC1(CCOCC1)NC2 | 76 to 78 °C
9 | Fc1ccc(C2CC(n3cncn3)c3ccccc3N2)cc1 (stereo unspecified) | 184 to 186 °C
10 | COc1cc2ncc(C#N)c(Nc3cc(C)c(O)c(C)c3)c2cc1OC | 234 to 236 °C
11 | c1ccc(CO[C@@H]2CCC[C@H]2Nc2nc(N3CCN(c4ccccc4)CC3)nc3c2SCC3)cc1 | 100 to 105 °C
12 | Cn1ncnc1COc1nc2c(cc1C(C)(C)C)nnn2-c1ccccc1 | 165 to 167 °C
13 | CCCCC(C(N)=O)n1ccnc1 (stereo unspecified) | 90 to 91 °C
14 | COc1ccc(-c2cc3nccnc3[nH]2)cc1 | 244 to 246 °C
15 | C=C(C(=O)O)c1ccc2cc(OC)ccc2c1 | 175 °C
16 | CC(=O)c1cccc(C)c1NC(=O)CCBr | 99 to 101 °C
17 | CN1C(=O)C(C)(C)N=C(c2ccccc2Cl)c2cc([N+](=O)[O-])ccc21 | 177 to 178 °C
18 | CN(C)Cc1cccc(OCCCNc2nc(Cc3ccccc3)n[nH]2)c1 | 140 to 141 °C
19 | O=C(Cl)N1CCN(c2ccccc2)CC1 | 79.5 °C
20 | COc1ccc2cc(-c3ccc(-n4nc(C)c(C)n4)c(Cl)c3)c(=O)oc2c1 | 170 °C
21 | CCNC(c1ccccc1)(c1ccccc1)c1ccccc1 | 75 to 77 °C
22 | CC(C)c1ccc(NC(=O)C2CCCc3c(OCc4ccccc4)cccc32)cn1 (stereo unspecified) | 157 °C
23 | O=C(c1sc(Nc2ccccc2)c2c1CCc1cnoc1-2)N1CCOCC1 | 177 to 178 °C
24 | COC(=O)C(Cc1cccc(OCC(=O)O)c1)c1nc(-c2ccccc2)c(-c2ccccc2)o1 (stereo unspecified) | 122 to 127 °C
25 | O=C(O)C(=O)CC(=O)c1ccc(Cc2ccc(Cl)c(Cl)c2)cc1 | 133 to 140 °C
26 | O=C(Nc1ccc2cc(CN3CCCCCC3)cnc2c1)c1ccc(-c2ccc(Cl)cc2)cc1 | 204 °C

Row | SMILES | melting point
27 | CCC1C(=O)Nc2cc(N)c(N)cc21 (stereo unspecified) | > 300 °C
28 | CC(C)N(C[C@H](O)[C@H](Cc1ccccc1)NC(=O)c1ccccc1NC(=O)OCc1ccccn1)NC(=O)OC(C)(C)C | 155 to 157 °C
29 | Cc1c(C)c2c(c(C)c1NC(=O)c1ccc(F)cc1)C(c1ccccc1)C(C)(C)O2 (stereo unspecified) | 156 to 158 °C
30 | CCCCCCCNc1cccc2c1CN(c1cc(C)cc(C)c1)C2=O | 68 to 69 °C
31 | CC(C)OC1C=CC(=O)N1 (stereo unspecified) | 79 to 81 °C
32 | CC1=CC(c2ccc(Cl)cc2)C2=C(CCCC2=O)N1 (stereo unspecified) | 184 to 187 °C
33 | COC(=O)c1ccc(OC)c([N+](=O)[O-])c1O | 185 to 187 °C
34 | Cn1c(=O)cnc2cccc(Oc3cc(-c4ccc(C(F)(F)F)cc4)ncn3)c21 | 158 °C
35 | CCS(=O)(=O)c1ccc(COc2cccc3c2CN(C2CCC(=O)NC2=O)C3=O)cc1 (stereo unspecified) | 248 to 250 °C
36 | O=C(O)c1ccccc1Nc1ccc(O)c(Cl)c1 | 180 to 183 °C
37 | Cc1cc(C)cc(Oc2c(C(C)C)c(=O)[nH]c(=O)n2CCC2C=CCC2)c1 (stereo unspecified) | 148 to 149 °C
38 | CC(C)(C)OC(=O)[C@H](COC(=O)N(N)c1ccc(CC(=O)O)cc1)C(=O)OC(c1ccccc1)c1ccccc1 | 165 to 166 °C
39 | CS(=O)(=O)c1ccc(-c2oc(CC(=O)O)nc2-c2ccc(F)cc2)cc1 | 118 to 120 °C
40 | CC(C)(C)OC(=O)NCCNC(=O)c1ccc([N+](=O)[O-])cn1 | 141 to 142 °C
41 | Oc1ccc(Br)cc1C(O)c1ccc2ccccc2c1 (stereo unspecified) | 115 to 117 °C
42 | COc1ccc(Cc2cc(CCNS(=O)(=O)c3ccc(Cl)cc3)cc(CCC(=O)O)c2)cc1 | 106 to 108 °C
43 | Cc1nnc(-c2ccc3occ(-c4ccc(OS(=O)(=O)C(F)(F)F)cc4)c3c2)o1 | 136 to 137 °C
44 | Cc1cc(SCC#Cc2ccc(C(F)(F)F)cc2)ccc1OCC(=O)O | 130 to 131 °C
45 | Cc1cc(C=CC(=O)O)c(Cl)nc1C | 150 to 158 °C
46 | COc1ccc(-c2nc(NC(C)=O)sc2-c2cccnc2)cc1 | 208 to 210 °C
47 | O=C(NCCc1cccc2ccccc12)C(F)(F)F | 79 to 80 °C
48 | Cc1ccc(-c2c(C(=O)NCc3cc(C(F)(F)F)cc(C(F)(F)F)c3)n(CCCCCO)c(=O)c3ncccc23)cc1 | 136 to 137 °C
49 | CS(=O)(=O)c1ccc(-c2cc(N)sc2-c2ccc(F)cc2)cc1 | 207 to 209 °C
50 | NCCc1coc2ccc3c(c12)CCCO3 | 110 °C
51 | COc1ccc(CC2CCC3=C(CCC(=O)N3)C2)cc1 (stereo unspecified) | 176 to 177 °C
52 | CCOc1cc(Br)cc2c1OC(C)(C)C2 | 55 to 58 °C

Row | SMILES | melting point
53 | COC(=O)C(Cc1ccc(OCCc2nc(-c3ccccc3)oc2C)cc1)C(=O)NC(N)=O (stereo unspecified) | 74.6 to 75.6 °C
54 | COC(=O)CCCCCOc1ccc(NC(=O)OCCOC(=O)Nc2ccc(OCCCCCC(=O)OC)cc2)cc1 | 118 to 120 °C
55 | COCCCNc1cccc(Oc2ccc(-c3cn(C4CCOC4)c4ncnc(N)c34)cc2)c1C#N (stereo unspecified) | 183 to 184 °C
56 | CCOC(=O)c1cc(=O)c2cc3c(c(CC4CO4)c2o1)CCCC3 (stereo unspecified) | 138 to 140 °C
57 | Cc1ccc(-c2nc(CO[C@H]3CCC[C@@H](C(=O)N[C@H](C(=O)O)C(C)C)C3)c(C)o2)cc1 | 195 to 196 °C
58 | CCOC(=O)CCc1ccc(C(=O)c2ccc(Cl)cc2)n1C | 71.5 to 73 °C
59 | COc1ccc(CNc2nc(N3CCC(C(=O)O)CC3)nc3sc(Cl)cc23)cc1Cl | > 250 °C
60 | CCOC(=O)C(=O)Nc1cc(C#N)cc(NC(=O)C(=O)OCC)c1 | 189 to 190 °C
61 | CCOC(=O)c1c(-c2cccc(Cl)c2)noc1C | 71 to 73 °C
62 | COc1ccc(C2CNCc3cc(N)ccc32)cc1OC (stereo unspecified) | 157 to 159 °C
63 | CCN(CC)c1ccc(C(F)(F)F)cc1NC(=O)c1ccncc1 | 78 to 80 °C
64 | CN(C)C=Nc1nc(=O)n(S(=O)(=O)c2ccccc2)cc1F | 203 to 204 °C
65 | Cc1nc(-c2ccc(Br)cc2)n(-c2ccc(S(N)(=O)=O)cn2)n1 | 221 to 222 °C
66 | CCNC(=O)NCCSCC(=O)NC/C=C\COc1cccc(CN2CCCCC2)c1 | 90.2 to 91.2 °C
67 | N#CC(=Cc1ccc2[nH]ccc2c1)C(=O)c1ccc(O)c(O)c1 | 185 °C
68 | CC(C)c1cccc(C(C)C)c1NC(=O)CNC(c1ccccc1)c1ccccn1 (stereo unspecified) | 135 to 136 °C
69 | CCCCCC#CCC(CC#CCCCCC)(C(=O)NO)S(=O)(=O)c1ccc(OC)cc1 | 83 to 84 °C
70 | CC(C)CC(NC(=O)OCc1ccccc1)C(=O)NC(Cc1ccc2ccccc2c1)C(=O)CSCc1ccco1 (stereo unspecified) | 103 to 104 °C
71 | C=C(c1c(C)n(CC)c2ccccc12)c1c(C)n(CC)c2ccccc12 | 179 to 182 °C
72 | CC(C)S(=O)(=O)NC[C@@H](C)c1ccc(-c2ccc3c(c2)CC(=O)N3)cc1 | 170 to 171 °C
73 | COCOc1cc(C(C)(C)C)ccc1C(=O)O | 72 °C
74 | CCOC(=O)N1CCC(=C2c3ccc(Cl)cc3CCn3ccnc32)CC1 | 140 °C
75 | CC(C)(C)c1cc2c(c(C(C)(C)C)c1)O[PH](=O)Oc1c(cc(C(C)(C)C)cc1C(C)(C)C)C2 | 164 °C
76 | CCCc1c(C(=O)C(C)C)c2ccc(C(N)=O)cc2n1Cc1c(Cl)cccc1Cl | 208 to 209 °C
77 | O=C(O)CCc1c(Sc2ccccc2)c2cc(F)ccc2n1Cc1ccc(Cl)cc1 | 138 to 139 °C
78 | Cc1cc(C2=CC(C)(C)CC(C)(C)C2CO)ccc1F (stereo unspecified) | 40 to 42 °C

Row | SMILES | melting point
79 | N#Cc1c[nH]c(-c2ccc(Cl)cc2)c1 | 174 to 175 °C
80 | COC(=O)/C=C/c1ccc2nn(C)c(C)c2c1C(=O)OC | 133 to 135 °C
81 | N#Cc1cc(-c2nc3cncnc3s2)ccc1Sc1cccc(F)c1 | 189 to 190 °C
82 | Cc1cc(C)cc(NCc2ccc3nc(NCC(O)CN4CCOCC4)n(Cc4nc(C)ccc4O)c3c2)c1 (stereo unspecified) | 198 °C
83 | CCCCCCCCn1c(C)c(C(=O)c2ccccc2C(=O)O)c2ccccc21 | 121 to 123 °C
84 | CCCNC(=O)c1cnc2ccccn2c1=O | 120 to 122 °C
85 | O=[N+]([O-])c1ccc(-c2cc3c(Nc4cccc(Cl)c4)ncnc3[nH]2)cc1 | > 250 °C
86 | COC(=O)c1c(C(=O)O)nc2cc(Cl)ccc2c1O | 215 °C
87 | O=C(/C=C/C=C(c1ccccc1C(F)(F)F)c1ccccc1C(F)(F)F)NCCCCc1cccnc1 | 110 to 112 °C
88 | CC(C)C1Oc2ccccc2NC1=O (stereo unspecified) | 118 to 119 °C
89 | CCc1onc(-c2ccc(Cl)cc2)c1CCC(=O)O | 164 to 165 °C
90 | O=C(C1CCCCC1)N1C=C2c3ccccc3CCN2C(=O)C1 | 136 to 138 °C
91 | CCCCCN1Cc2cccc(Cl)c2S1(=O)=O | 46 to 48 °C
92 | OCc1ncccc1Cl | 42 to 44 °C
93 | CC/C(=C(\c1ccc(/C=C/C(=O)O)cc1)c1ccc(OC(=O)c2ccco2)cc1)c1ccccc1 | 170 to 172 °C
94 | COCCOC(=O)Nc1cccc(C)c1CNc1cccn2c(CO)c(C)nc12 | 138 to 140 °C
95 | CCC12CCC(=O)C=C1c1c(cc(OCC(=O)O)c(Cl)c1Cl)C2 (stereo unspecified) | 237 to 238 °C
96 | COC(=O)C(Oc1cc(OCc2ccsc2)ccc1C#N)c1ccccc1C(F)(F)F (racemic) | 104 to 108 °C
97 | O=C1NCCN1Cc1cccnc1 | 58 to 86 °C
98 | COc1ccccc1-n1c(-c2cc(-c3ccc(Cl)cc3)c(N3CCOCC3)s2)nc2ccccc2c1=O | 216 to 217 °C
99 | N#Cc1ccc(-c2ccc(C(=O)CCC(=O)O)cc2)cc1 | 191 to 193 °C
100 | CC(C)OC(OC(C)C)(O[C@H](C)Cn1cnc2c(Cl)nc(N)nc21)P(=O)(O)O | 130 to 132 °C
101 | CCOc1c(C)cnc(CO)c1C | 58 to 59 °C
